This experiment has as its target T1, TYK2-JH2 (Homo sapiens, UniProt P29597).
T1 construct: TYK JH2 enzyme mix (ChemPartner: CP20210818A-BV); purchased ChemPartner CP20210818A-BV
Put plainly: TYK2-JH2 HTRF binding assay (ligand efficiency). As to conditions: calculated from binding-assay IC50 (Equation 1). The method, then: The following example describes the TYK2-JH2 HTRF binding assay used to determine the ligand efficiency of the TYK2 inhibitors.
To calculate ligand efficiency, Equation 1 is applied: […]
in which IC50 comes from the binding assay used to determine compound potency.
TYK JH2 enzyme mix (ChemPartner: CP20210818A-BV), tracer (ChemPartner: CP-0029472-051) and mAb Anti-6HIS Tb cryptate Gold (Cisbio: Cat No. 61HI2TLA) mix were prepared in assay buffer (10 mM MgCl2, 20 mM HEPES pH 7.5, 0.01% Triton X-100, 1 mM DTT). Compounds diluted in DMSO (Final Concentrations 0.1 to 0.000005 [μM]) and enzyme mix (0.5 nM Final Concentration) were added to 384 well plates, briefly centrifuged and incubated at room temperature for 10 minutes. After incubation, tracer mix (Tracer-35 nM final concentration); (MAb Anti-6HIS Tb cryptate Gold-0.5× final)) was added, briefly centrifuged then incubate at room temperature 60 minutes. After incubation, plates were read by Envision TR-FRET (Ex340/Em495/520) protocol (PerkinElmer-Envision 2104 multilabel plate reader).
T1 sequence (P29597 589-875 limits assumed): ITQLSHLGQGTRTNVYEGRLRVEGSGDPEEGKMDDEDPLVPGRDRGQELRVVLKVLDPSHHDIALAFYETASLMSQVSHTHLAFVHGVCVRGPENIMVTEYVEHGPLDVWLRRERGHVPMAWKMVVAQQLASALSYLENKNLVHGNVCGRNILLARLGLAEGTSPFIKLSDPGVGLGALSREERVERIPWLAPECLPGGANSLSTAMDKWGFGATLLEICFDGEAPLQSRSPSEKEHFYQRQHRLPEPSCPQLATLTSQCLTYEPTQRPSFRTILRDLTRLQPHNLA
Turning to `CC(c1ccc(Nc2cc(Nc3ncccc3S(C)(=O)=O)ncn2)nc1)N1CC2(CC(F)C2)C1` (stereo in doubt) [Compound 10, N^4-(5-((1R)-1-(6-fluoro-2-azaspiro[3.3]heptan-2-yl)ethyl)pyridin-2-yl)-N^6-(3-(methylsulfonyl)pyridin-2-yl)pyrimidine-4,6-diamine], the “Ligand Efficiency” value is “††† (†††: >0.39)”.

As to `CC(c1ccc(Nc2cc(Nc3ncccc3S(C)(=O)=O)ncn2)nc1)N1CCCC1` (stereo in doubt) [Compound 15, (R)—N^4-(3-(methylsulfonyl)pyridin-2-yl)-N^6-(5-(1-(pyrrolidin-1-yl)ethyl)pyridin-2-yl)pyrimidine-4,6-diamine], the “Ligand Efficiency” value is listed as “††† (†††: >0.39)”.

For `CC(c1ccc(Nc2cc(Nc3ncccc3S(C)(=O)=O)ncn2)nc1)N1CC2(CCOCC2)C1` (stereo in doubt) [Compound 31, (R)—N^4-(5-(1-(7-oxa-2-azaspiro[3.5]nonan-2-yl)ethyl)pyridine-2-yl)-N^6-(3-(methylsulfonyl)pyridin-2-yl)pyrimidine-4,6-diamine], the “Ligand Efficiency” value is recorded as “†† (††: 0.37-0.39)”.

Consider `CC(NC1COC1)c1ccc(Nc2cc(Nc3ccccc3S(C)(=O)=O)ncn2)nc1` (stereo in doubt) [Compound 40, (R)—N^4-(2-(methylsulfonyl)phenyl)-N^6-(5-(1-(oxetan-3-ylamino)ethyl)pyridin-2-yl)pyrimidine-4,6-diamine], for which the “Ligand Efficiency” value is listed as “††† (†††: >0.39)”.

For `COc1cnc(Nc2cc(Nc3ccc([C@H](C)N4CC5(COC5)C4)cn3)ncn2)c(S(C)(=O)=O)c1` [Compound 3, (S)—N^4-(5-(1-(2-oxa-6-azaspiro[3.3]heptan-6-yl)ethyl)pyridine-2-yl)-N^6-(5-methoxy-3-(methylsulfonyl)pyridin-2-yl)pyrimidine-4,6-diamine], the “Ligand Efficiency” value was “†† (††: 0.37-0.39)”.

Regarding `Cc1nc(Nc2cc(Nc3ncccc3S(C)(=O)=O)ncn2)ccc1NC1(C)COC1` [Compound 6, N^4-(6-methyl-5-((3-methyloxetan-3-yl)amino)pyridin-2-yl)-N^6-(3-(methylsulfonyl)pyridin-2-yl)pyrimidine-4,6-diamine], the “Ligand Efficiency” value is given as “††† (†††: >0.39)”.

Consider `CS(=O)(=O)c1cccnc1Nc1cc(Nc2ccc(N3CCN(C4CC4)CC3)cn2)ncn1` [Compound 7, N^4-(5-(4-cyclopropylpiperazin-1-yl)pyridin-2-yl)-N^6-(3-(methylsulfonyl)pyridin-2-yl)pyrimidine-4,6-diamine], for which the “Ligand Efficiency” value is recorded as “††† (†††: >0.39)”.

For `C[C@H]1CN(C2CC2)CCN1c1ccc(Nc2cc(Nc3ncccc3S(C)(=O)=O)ncn2)nc1` [Compound 8, (S)—N^4-(5-(4-cyclopropyl-2-methylpiperazin-1-yl)pyridin-2-yl)-N^6-(3-(methylsulfonyl)pyridin-2-yl)pyrimidine-4,6-diamine], the “Ligand Efficiency” value was “††† (†††: >0.39)”.

As for `CS(=O)(=O)c1cccnc1Nc1cc(Nc2ccc3c(n2)CC[C@@H]3N2CC3(COC3)C2)ncn1` [Compound 9, N^4-((5S)-5-(2-oxa-6-azaspiro[3.3]heptan-6-yl)-6,7-dihydro-5H-cyclopenta[b]pyridin-2-yl)-N^6-(3-(methylsulfonyl)pyridin-2-yl)pyrimidine-4,6-diamine], the “Ligand Efficiency” value is listed as “††† (†††: >0.39)”.

Take `CC(C)[C@@H](c1ccc(Nc2cc(Nc3ncccc3S(C)(=O)=O)ncn2)nc1)N1CC2(COC2)C1` [Compound 13, (S)—N^4-(5-(2-methyl-1-(2-oxa-6-azaspiro[3.3]heptan-6-yl)propyl)pyridine-2-yl)-N^6-(3-(methylsulfonyl)pyridin-2-yl)pyrimidine-4,6-diamine]: the “Ligand Efficiency” value is “†† (††: 0.37-0.39)”.

Turning to `C[C@@H](c1ccc(Nc2cc(Nc3ncc(Cl)cc3S(C)(=O)=O)ncn2)nc1)N1CC2(COC2)C1` [Compound 14, (S)—N^4-(5-(1-(2-oxa-6-azaspiro[3.3]heptan-6-yl)ethyl)pyridin-2-yl)-N^6-(5-chloro-3-(methylsulfonyl)pyridin-2-yl)pyrimidine-4,6-diamine], the “Ligand Efficiency” value was “††† (†††: >0.39)”.

Consider `CS(=O)(=O)c1cccnc1Nc1cc(Nc2ccc([C@@H](N3CC4(COC4)C3)C(F)(F)F)cn2)ncn1` [Compound 16, (R)—N^4-(3-(methylsulfonyl)pyridin-2-yl)-N^6-(5-(2,2,2-trifluoro-1-(2-oxa-6-azaspiro[3.3]heptan-6-yl)ethyl)pyridin-2-yl)pyrimidine-4,6-diamine], for which the “Ligand Efficiency” value is recorded as “†† (††: 0.37-0.39)”.

As to `CS(=O)(=O)c1cccnc1Nc1cc(Nc2cccc(C(F)(F)F)n2)ncn1` [Compound 19, N^4-(3-(methylsulfonyl)pyridin-2-yl)-N^6-(6-(trifluoromethyl)pyridin-2-yl)pyrimidine-4,6-diamine], the “Ligand Efficiency” value was “††† (†††: >0.39)”.

For the molecule `C[C@H]1CN(C)CCN1c1ccc(Nc2cc(Nc3ncccc3S(C)(=O)=O)ncn2)nc1` [Compound 20, (S)—N^4-(5-(2,4-dimethylpiperazin-1-yl)pyridin-2-yl)-N^6-(3-(methylsulfonyl)pyridin-2-yl)pyrimidine-4,6-diamine], the “Ligand Efficiency” value is recorded as “††† (†††: >0.39)”.

`CC1(Nc2ccc(Nc3cc(Nc4ncccc4S(C)(=O)=O)ncn3)nc2)COC1` [Compound 21, N^4-(5-((3-methyloxetan-3-yl)amino)pyridin-2-yl)-N^6-(3-(methylsulfonyl)pyridin-2-yl)pyrimidine-4,6-diamine]: the “Ligand Efficiency” value is “††† (†††: >0.39)”.

As to `CC(c1ccc(Nc2cc(Nc3ncccc3S(C)(=O)=O)ncn2)nc1)N1CC(F)C1` (centres unmarked) [Compound 22, N^4-(5-(1-(3-fluoroazetidin-1-yl)ethyl)pyridin-2-yl)-N^6-(3-(methylsulfonyl)pyridin-2-yl)pyrimidine-4,6-diamine], the “Ligand Efficiency” value is given as “††† (†††: >0.39)”.

Take `Cc1cc(Nc2cc(Nc3ncccc3S(C)(=O)=O)ncn2)ncc1NC1(C)COC1` [Compound 23, N^4-(4-methyl-5-((3-methyloxetan-3-yl)amino)pyridin-2-yl)-N-(3-(methylsulfonyl)pyridin-2-yl)pyrimidine-4,6-diamine]: the “Ligand Efficiency” value is on record as “††† (†††: >0.39)”.

For the molecule `CS(=O)(=O)c1cccnc1Nc1cc(Nc2ccc(N3CCC4(CCO4)CC3)cn2)ncn1` [Compound 24, N^4-(5-(1-oxa-7-azaspiro[3.5]nonan-7-yl)pyridin-2-yl)-N^6-(3-(methylsulfonyl)pyridin-2-yl)pyrimidine-4,6-diamine], the “Ligand Efficiency” value is recorded as “†† (††: 0.37-0.39)”.

As to `C[C@@H](c1ccc(Nc2cc(Nc3ncccc3S(C)(=O)=O)ncn2)nc1)N1C[C@H]2COC[C@H]2C1` [Compound 25, N^4-(3-(methylsulfonyl)pyridin-2-yl)-N^6-(5-(1-((3aR,6aS)-tetrahydro-1H-furo[3,4-c]pyrrol-5(3H)-yl)ethyl)pyridin-2-yl)pyrimidine-4,6-diamine], the “Ligand Efficiency” value is given as “††† (†††: >0.39)”.

For the molecule `CC(NC1CCOC1)c1ccc(Nc2cc(Nc3ccccc3S(C)(=O)=O)ncn2)nc1` (centres unmarked) [Compound 26, N^4-(2-(methylsulfonyl)phenyl)-N^6-(5-(1-(tetrahydrofuran-3-ylamino)ethyl)pyridin-2-yl)pyrimidine-4,6-diamine], the “Ligand Efficiency” value is “†† (††: 0.37-0.39)”.

Take `CS(=O)(=O)c1ccccc1Nc1cc(Nc2ccc3c(n2)CCCC3N2CC3(CCOCC3)C2)ncn1` (centres unmarked) [Compound 27, N^4-(5-(7-oxa-2-azaspiro[3.5]nonan-2-yl)-5,6,7,8-tetrahydroquinolin-2-yl)-N^6-(2-(methylsulfonyl)phenyl)pyrimidine-4,6-diamine]: the “Ligand Efficiency” value was “† (†: < 0.37)”.

As to `CS(=O)(=O)c1ccccc1Nc1cc(Nc2ccc(CNC3CCOC3)cn2)ncn1` (centres unmarked) [Compound 28, N^4-(2-(methylsulfonyl)phenyl)-N^6-(5-((tetrahydrofuran-3-ylamino)methyl)pyridin-2-yl)pyrimidine-4,6-diamine], the “Ligand Efficiency” value is reported as “†† (††: 0.37-0.39)”.

For the molecule `C[C@@H](c1ccc(Nc2cc(Nc3ncccc3S(C)(=O)=O)ncn2)nc1)N1CCCC12CCOCC2` [Compound 29, (S)—N^4-(5-(1-(8-oxa-1-azaspiro[4.5]decan-1-yl)ethyl)pyridin-2-yl)-N^6-(3-(methylsulfonyl)pyridin-2-yl)pyrimidine-4,6-diamine], the “Ligand Efficiency” value is “†† (††: 0.37-0.39)”.

With `C[C@H](c1ccc(Nc2cc(Nc3ncccc3S(C)(=O)=O)ncn2)nc1)N1CCC2(CCOCC2)C1` [Compound 30, (R)—N^4-(5-(1-(8-oxa-2-azaspiro[4.5]decan-2-yl)ethyl)pyridin-2-yl)-N^6-(3-(methylsulfonyl)pyridin-2-yl)pyrimidine-4,6-diamine], the “Ligand Efficiency” value was “†† (††: 0.37-0.39)”.

As to `C[C@@H](c1ccc(Nc2cc(Nc3ncccc3S(C)(=O)=O)ncn2)nc1)N1CC2(CCOC2)C1` [Compound 32, (S)—N^4-(5-(1-(6-oxa-2-azaspiro[3.4]octan-2-yl)ethyl)pyridin-2-yl)-N^6-(3-(methylsulfonyl)pyridin-2-yl)pyrimidine-4,6-diamine], the “Ligand Efficiency” value is recorded as “††† (†††: >0.39)”.

With `CC(C)(c1ccc(Nc2cc(Nc3ncccc3S(C)(=O)=O)ncn2)nc1)N1CC2(CCOCC2)C1` [Compound 33, N^4-(5-(2-(7-oxa-2-azaspiro[3.5]nonan-2-yl)propan-2-yl)pyridin-2-yl)-N^6-(3-(methylsulfonyl)pyridin-2-yl)pyrimidine-4,6-diamine], the “Ligand Efficiency” value was “†† (††: 0.37-0.39)”.

The values above are taken from US20260048051A1, “TREATMENT OF INFLAMMATORY BOWEL DISEASE” (Atomwise Inc., priority 2024, published 2026).
